One test concerns the target T1, human TSHR (Homo sapiens, UniProt P16473).
T1 construct: expressed in transfected cells
Kind of test: Antagonist activity using TSH-induced cAMP production in human TSHR-stably expressing CHO cells. The test is classed as cell-based. The note with it: human TSH final concentration of 50 ng/mL, cAMP production rate. Here is the method:
Measurement of antagonist activity using TSH-induced cAMP production in human TSHR-stably expressing CHO cells as an indicator
The gene sequence (reference number NM_000369.2) of human TSHR was inserted into the multiple cloning site of pcDNA3.1(+). The prepared plasmid vector was introduced into CHO cells using a lipofection method to establish human TSHR-stably expressing CHO cells. The obtained cells were seeded at 5 x 10^4 cells/well in a 96-well poly-D-lysine-coated plate, and cultured in an F12 culture medium containing 10% FBS, 400 µg/mL of G418, 50 U/mL of penicillin and 50 µg/mL of streptomycin under conditions of 37°C and 5% CO2 for 1 day. The culture medium was removed, and the cells were then washed twice with 100 µL of an assay buffer (Hanks' Balanced Salt Solution containing 20 mM HEPES and 1 mM IBMX) per well. 30 µL of an assay buffer containing a test compound was added to the well, and incubation was performed at room temperature for 15 minutes. Then, 30 µL of an assay buffer containing human TSH (a final concentration of 50 ng/mL, R&D Systems, Inc.) was added, and incubation was performed at 37°C for 1 hour. The supernatant was removed, a Lysis and Detection Buffer 2 (Cisbio) was added, and incubation was performed at room temperature for 1 hour to prepare a cell lysate. According to the instruction manual of a cAMP Gs HiRange kit (Cisbio), the cell lysate, d2-labeled cAMP and anti-cAMP Europium Cryptate labeled antibodies (Cisbio) were reacted in a 384-well white microplate. Then, a fluorescence intensity ratio (measurement wavelength 665 nm/620 nm) was measured using a multi-plate reader (PHERAstar FSX, BMG LABTECH Japan). The fluorescence intensity ratio of each sample was converted to a cAMP content using a standard curve. The cAMP content was converted as a percentage of the control value to calculate a cAMP production rate. The cAMP production rate was plotted against the test compound concentration using Prism (Graph Pad Software Inc.) to calculate the IC50 value. In the tables, IC50<3.0 µM was indicated as A, and 3.0 µM≤IC50<30 µM was indicated as B. If activity was observed but the IC50 value could not be calculated, it was indicated as C.
In general terms: Cyclic AMP is a second messenger, typically raised through Gs and lowered through Gi signalling.
T1 sequence (P16473 21-764): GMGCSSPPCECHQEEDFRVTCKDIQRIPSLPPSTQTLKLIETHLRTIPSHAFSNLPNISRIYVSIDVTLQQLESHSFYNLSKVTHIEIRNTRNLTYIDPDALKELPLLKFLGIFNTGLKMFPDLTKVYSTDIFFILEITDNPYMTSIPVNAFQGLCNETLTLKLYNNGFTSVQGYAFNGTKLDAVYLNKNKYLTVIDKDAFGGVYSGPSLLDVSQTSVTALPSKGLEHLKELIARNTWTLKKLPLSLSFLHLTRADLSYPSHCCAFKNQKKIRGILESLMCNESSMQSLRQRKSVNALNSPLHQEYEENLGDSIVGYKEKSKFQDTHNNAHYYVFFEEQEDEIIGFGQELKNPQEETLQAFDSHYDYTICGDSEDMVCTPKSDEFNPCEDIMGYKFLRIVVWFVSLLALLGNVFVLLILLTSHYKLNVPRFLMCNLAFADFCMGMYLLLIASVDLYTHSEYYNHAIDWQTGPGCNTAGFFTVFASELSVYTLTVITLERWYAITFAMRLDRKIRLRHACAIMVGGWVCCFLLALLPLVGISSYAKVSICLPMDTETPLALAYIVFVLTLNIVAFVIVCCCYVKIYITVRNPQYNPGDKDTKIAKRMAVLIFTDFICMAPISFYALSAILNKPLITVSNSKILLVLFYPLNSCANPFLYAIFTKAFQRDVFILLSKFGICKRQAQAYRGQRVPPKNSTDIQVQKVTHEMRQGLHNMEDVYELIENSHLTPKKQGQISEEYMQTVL
Broadly, the IC50 is the concentration that gives 50% inhibition. A low value points to greater potency. `CN1C(=O)[C@H](NC(N)=O)Cc2cccc(C(O)c3ccccc3Cl)c21` (stereo partly drawn) [Example 12, 1-((3R)-8-((2-chlorophenyl)(hydroxy)methyl)-1-methyl-2-oxo-1,2,3,4-tetrahydroquinoline-3-yl)urea] came in with an IC50 of over 30 µM.

The compound `Cc1ccc2c(c1Oc1cc(F)ccc1Cl)N(C)C(=O)[C@H](NC(=O)N1CCOCC1)C2` [Example 19, (R)-N-(8-(2-chloro-5-fluorophenoxy)-1,7-dimethyl-2-oxo-1,2,3,4-tetrahydroquinoline-3-yl)m orpholine-4-carboxamide] returned a concentration for half-maximal inhibition (IC50) of under 3 µM.

In the case of `CN1C(=O)C(NC(N)=O)Cc2scc(C(=O)c3cc(F)ccc3Cl)c21` (centres unmarked) [Example 42, 1-(3-(2-chloro-5-fluorobenzoyl)-4-methyl-5-oxo-4,5,6,7-tetrahydrothieno[3,2-b]pyridin-6-yl) urea], the IC50 was under 3 µM.

In turn, `CN1C(=O)C(CC(N)=O)Cc2cc(NC(=O)OC3CCCC3)cc(Oc3ccccc3C#N)c21` (centres unmarked) [Example 3, cyclopentyl (3-(2-amino-2-oxoethyl)-8-(2-cyanophenoxy)-1-methyl-2-oxo-1,2,3,4-tetrahydroquinoline-6-yl)carbamate] yielded an IC50 of under 3 µM.

`CN1C(=O)[C@H](NC(N)=O)Cc2sc(CO)c(Cc3cc(F)ccc3Cl)c21` [Example 41, (R)-1-(3-(2-chloro-5-fluorobenzyl)-2-(hydroxymethyl)-4-methyl-5-oxo-4,5,6,7-tetrahydrothieno[3,2-b]pyridin-6-yl)urea]: the IC50 is under 3 µM.

As to `CN1C(=O)[C@H](NC(N)=O)Cc2scc(Cc3cc(F)ccc3Cl)c21` [Example 37, (R)-1-(3-(2-chloro-5-fluorobenzyl)-4-methyl-5-oxo-4,5,6,7-tetrahydrothieno[3,2-b]pyridine-6-yl)urea], the IC50 is under 3 µM.

As to `CC(c1ccccc1)c1cccc2c1N(C)C(=O)N(CC(N)=O)C2` (centres unmarked) [Example 30, 2-(1-methyl-2-oxo-8-(1-phenylethyl)-1,4-dihydroquinazoline-3(2H)-yl)acetamide], the IC50 was over 30 µM.

For the compound `CN1C(=O)C(CC(N)=O)Cc2cc(NC(=O)OC3CCCC3)cc(Oc3ccccc3)c21` (centres unmarked) [Example 2, cyclopentyl (3-(2-amino-2-oxoethyl)-1-methyl-2-oxo-8-phenoxy-1,2,3,4-tetrahydroquinoline-6-yl)carbam ate], the IC50 is under 3 µM.

With `CN1C(=O)C(C(N)=O)Cc2cc(NC(=O)OC3CCCC3)cc(Oc3ccccc3)c21` (centres unmarked) [Example 1, cyclopentyl (3-carbamoyl-1-methyl-2-oxo-8-phenoxy-1,2,3,4-tetrahydroquinoline-6-yl)carbamate], the IC50 was 3 to 30 µM.

For the compound `CN1C(=O)[C@H](N2CCOC2=O)Cc2cccc(Oc3cc(F)ccc3Cl)c21` [Example 25, (R)-3-(8-(2-chloro-5-fluorophenoxy)-1-methyl-2-oxo-1,2,3,4-tetrahydroquinoline-3-yl)oxazo lidine-2-one], the IC50 is over 30 µM.

As for `CN1C(=O)C(NC(N)=O)Cc2cc(NC(=O)OC3CCCC3)cc(Oc3cccc(C(F)(F)F)n3)c21` (centres unmarked) [Example 5, cyclopentyl (1-methyl-2-oxo-8-((6-trifluoromethylpyridin-2-yl)oxy)-3-ureido-1,2,3,4-tetrahydroquinoline-6-yl)carbamate], the IC50 is under 3 µM.

Regarding `CN1C(=S)C(NC(N)=O)Cc2cccc(Oc3cc(F)ccc3Cl)c21` (centres unmarked) [Example 27, 1-(8-(2-chloro-5-fluorophenoxy)-1-methyl-2-thioxo-1,2,3,4-tetrahydroquinoline-3-yl)urea], the IC50 was under 3 µM.

System in a further test: not given
Experiment: not given
The note with it: mice in which a TSH-releasing hormone (TRH) has been administered; cited from earlier work.
On to `COc1ccc(C2Nc3ccccc3C(=O)N2Cc2ccco2)cc1COc1c(C)cc(NC(C)=O)cc1C` (centres unmarked) [NCGC00242364], for which the “blood T4 concentration lowering effect” value is “blood T4 concentration lowering effect”.

The same test, now with this note: mice in which a thyroid stimulating antibody M22 has been administered; cited from earlier work.
For `COc1ccc(C2Nc3ccccc3C(=O)N2Cc2ccco2)cc1COc1c(C)cc(NC(C)=O)cc1C` (centres unmarked) [NCGC00242364], the “blood T4 concentration lowering effect” value was “blood T4 concentration lowering effect”.

Values taken from patent publication EP4818159A1 (Kissei Pharmaceutical Co., Ltd., priority 2023, dated 2025).
